The numbers were not newly measured in US7947297B2, “Mixtures of phenolic and inorganic materials with antimicrobial activity” (BASF SE, priority 2000, dated 2011), which cites them from elsewhere.

Molecules are shown by their SMILES.

For the data set the following is noted: polypropylene samples, Xenon Arc Weather-Ometer at 035 W/m^2, 63° C.

Take `Oc1cc(Cl)ccc1Oc1ccc(Cl)cc1Cl` [Irgaguard ® B1000, 2,4,4′-trichloro-2′-hydroxydiphenyl ether]: the discoloration upon weathering result was “discolor within hours”.
